Assay results: patent US20090030037A1, “Sustained Release Formulation and Dosing Schedules of Leukotriene Synthesis Inhibitor for Human Therapy” (deCODE Genetics ehf., priority 2005, published 2009)

Assays:
Type in all cases: in vivo, human
[1] = test system: White blood cell count; test: Study DG-031-201: white blood cell count; conditions: difference visit 2 to 5; 500 and 750 mg/day vs placebo
Protocol: (§1) Patients who met the study eligibility criteria were enrolled and randomized into 3 different dose-level groups: (1) 64 patients on 250 mg/day therapy with DG-031 (250 mg q.d.), vs placebo; (2) 64 patients on 500 mg/day therapy with DG-031 (250 mg b.i.d.) vs placebo; and (3) 63 patients on 750 mg/day therapy with DG-031 (250 mg t.i.d.) vs placebo. […] All patients received 3 tablets per day. Treatment periods, 4 weeks in duration each, were separated by a 2-week washout period. The placebo tablets were identical in shape, color, form and taste to the active tablets except that they contained no active drug ingredients. Treatment with DG-031 or placebo was in addition to the subject's standard care, including all medications and treatment plan as prescribed by the subject's cardiologist prior to enrolment. A total of 191 subjects were enrolled, with 172 completing all 8 visits or 8 patients short of the target of 180 patients.
(§2) All data were analyzed according to a pre-established statistical analysis plan (SAP) and by intention-to-treat (ITT). Each arm of the study, as well as pooled sets (combining dose levels), was considered for the primary analysis. […] The difference between DG-031 and placebo treatment was the primary outcome, assessed separately for each of the biomarkers. […]

[2] = test system: LDL cholesterol; test: Study DG-031-201: LDL cholesterol; conditions: highest dose of DG-031
Protocol: as §1, §2

[3] = test system: MPO; test: Study DG-031-204: plasma MPO; conditions: for Serum MPO (% change from baseline), mean response: after 4 weeks of DG-031 administration
Protocol: An additional single site, open label study was carried out to obtain biomarker and safety data on additional DG-031 doses (i.e., 1000 mg and 1500 mg). This study examined the safety, tolerability and dose-related effects of DG-031 on inflammatory biomarkers including: LTB4, hsCRP, and MPO. A total of 119 patients with a prior history of CAD and MI were randomized to receive either 1000 mg DG-031 (500 mg BID) or 1500 mg DG-031 (500 mg TID) daily for 4-6 weeks. Treatment with DG-031 in addition to the subject's standard care, medication, and treatment, was prescribed by the patient's cardiologist. A majority of the subjects received statin therapy before, during and after the study. Follow-up assessments were performed 2 weeks after the end of study drug administration.
The biomarkers were analyzed as described in Example 1. Statistical analysis of the data was carried out using a one-sample t-test on change from baseline with a two-sided nominal significance level of 0.050. Biomarker concentrations were log-transformed and a simple last observation carried forward (LOCF) scheme was used to impute missing observations.
Plasma MPO concentration was measured weekly. MPO measurements in ionomycin-stimulated whole blood were also measured in a subset of patients at 4 weeks.

[4] = test system: LTB4; test: Exposure-response analysis: estimated reduction in stimulated LTB4 by DG-031 daily dose; conditions: for Estimated Percent LTB4 Reduction by DG-031 Daily Dose, Mean: stimulated LTB4, mean model prediction from studies DG-031-201 and DG-031-203
Protocol: Administration of DG-031 500 mg BID reduced LTB4 levels to the target 35% reduction, as measured in the ionophore-stimulation assay described in Example 1. The estimated DG-031-induced reduction in stimulated LTB4 levels was based on all the relevant data observed in the DG-031-201 and DG-031-203 studies. The control baseline was 7.8%. The data presented in Table 14 are the mean and the 5th and 95th percentiles based on the mean model prediction (the 90% confidence interval on the estimated LTB4 response).
The pharmacokinetic characteristics of the tested DG-031 formulation result in an observed mean peak concentrations of 8.8 μg/mL and mean trough concentrations of 4.3 μg/mL. (Table 18) The characteristics of the tested formulation leads to prolonged drug absorption that minimizes the peak to trough fluctuation in DG-031 plasma concentration and LTB4 response.

O=C(O)[C@@H](c1ccc(OCc2ccc3ccccc3n2)cc1)C1CCCC1 [DG-031, (R)-(+)-alpha-cyclopentyl-4-(2-quinolinylmethoxy)-Benzeneacetic acid]
Carry-over effect, White blood cell count [1]: −0.01
Increase in LDL cholesterol [2]: 8%
Plasma MPO concentrations, change from baseline ([3]; 500 mg BID or TID, measured weekly): No changes from baseline
Serum MPO (% change from baseline), mean response ([3]; 1000 mg (500 mg BID)): +3%
Serum MPO (% change from baseline), mean response ([3]; 1500 mg (500 mg TID)): −12%
Average drug exposure ([4]; 500 mg BID (1000 mg daily)): 7.6 µg/mL
Reduction in stimulated LTB4 production ([4]; 500 mg BID, 90% prediction interval −45% to −24%): 37%
Estimated Percent LTB4 Reduction by DG-031 Daily Dose, Mean ([4]; daily dose 250): −8.7%
Estimated Percent LTB4 Reduction by DG-031 Daily Dose, Mean ([4]; daily dose 500): −19.4%
Estimated Percent LTB4 Reduction by DG-031 Daily Dose, Mean ([4]; daily dose 750): −28.8%
Estimated Percent LTB4 Reduction by DG-031 Daily Dose, Mean ([4]; daily dose 1000): −37.1%
Estimated Percent LTB4 Reduction by DG-031 Daily Dose, Mean ([4]; daily dose 1250): −44.5%
Estimated Percent LTB4 Reduction by DG-031 Daily Dose, Mean ([4]; daily dose 1500): −50.9%
